Results from patent publication US11174250B2, “Substituted carboxamides as inhibitors of WDR5 protein-protein binding” (PROPELLON THERAPEUTICS INC., priority 2016, dated 2021).
Read-outs that look alike come from different tables or passages of the source.

Columns and labels:
MV4-11 cells = test: Cell proliferation assay (ATPlite); format: cell-based; settings: Homo sapiens, MV4-11, 120 h; MV-411 cells, five days; read-out: In vitro whole cell potency in MV-411 cells, (IC50)
Description: MV4-11 cells were seeded into a 96-well plate at 1,000 cells/well in 150 μl medium (Alpha-MEM containing 10% FBS, 100 μg/ml Normocin, and 50 μg/ml Gentamycin, Invitrogen). A HP D300 digital dispenser was used to dose cells with DMSO or test compounds across a 10-point range of concentrations (high dose of 10 μM), and cultures were grown in a humidified 5% CO2 incubator at 37° C. After five days, plates were removed from incubator and equilibrated to room temperature. An equal volume of ATPlite assay reagent was added to each well, and samples were processed according to manufacturer's instructions (Perkin Elmer). Luminescent signal was measured using an Envision plate reader equipped with a US-Luminescence detector.

WDR5 protein = WDR5 protein (Homo sapiens (Human), UniProt P61964); test: Surface Plasmon Resonance (SPR) assay; format: binding; settings: SPR; for residence time: τ=1/koff, read-out: Residence Time (t, min)
Description: Exemplary compounds of the application were dissolved in 100% DMSO at 10 mM, assayed fresh, and then stored at −20° C. for repeat studies and other experiments. Full length WDR5 with an N-terminal His tag and C-terminal AviTag (Avidity Inc.) was expressed in E. coli with coexpression of BirA to biotin label the protein in vivo. Purification was via Ni-NTA. The purified WDR5 protein has a molecular weight of 41976 Da.
SPR studies were performed using a Biacore™ T200 instrument (GE Health Sciences Inc.). Biotinylated WDR5 protein (approximately 3000RU) was stably captured to streptavidin coupled SA chips according to the manufacture's protocol (GE Health Sciences Inc.). The running buffer used was HBS-EP (20 mM Hepes pH 7.4, 150 mM NaCl, 3 mM EDTA, 0.05% P-20) plus 5% DMSO with a flow rate of 40p1/min. For SPR analysis, 5 different concentrations of each exemplary compound of the application were sprayed into 96 or 384 well plates using an HP D300 digital dispenser. […] Curve fitting and KD calculations were performed with the Biacore T200 Evaluation software (GE Health Sciences Inc).

MLL1-WRAD2 complex = MLL1-WRAD2 complex (Homo sapiens (Human), UniProt P61964); test: MLL1-WRAD2 enzyme assay (in vitro methyl transferase assay); format: biochemical; settings: MLL1-WRAD2 assay; read-out: In vitro MLL1 activity (IC50)
Description: Reaction was initiated with 1 μM 3H-SAM and incubated for 1 hour at 30° C. Reaction mixture was transferred to P81 filter-paper and washed with PBS before detection.

[1] = Table 1, read-out: WDR5 binding affinity (KD)
[2] = Table 2, read-out: WDR5 binding affinity SPR (KD)

| SMILES | IC50 (MV4-11 cells) [nM] | Kd (WDR5 protein; [1]) [nM] | Kd (WDR5 protein; [2]) [nM] | residence time (WDR5 protein) [min] | IC50 (MLL1-WRAD2 complex) [nM] |
| --- | --- | --- | --- | --- | --- |
| CN1CCN(c2ccc(-c3ccc(OCC4CC4)nc3F)cc2NC(=O)c2c[nH]c(=O)cc2C(F)(F)F)CC1 [Example 16, N-(5-(6-(cyclopropylmethoxy)-2-fluoropyridin-3-yl)-2-(4-methylpiperazin-1-yl)phenyl)-6-oxo-4-(trifluoromethyl)-1,6-dihydropyridine-3-carboxamide] | 5970 | 10 | 10 | 5.25 | 1470 |
| C[C@@H]1CN(c2ccc(-c3cc(CN4CCOCC4)ccc3F)cc2NC(=O)c2c[nH]c(=O)cc2C(F)(F)F)C[C@H](C)N1C [Example 27, N-(2′-fluoro-5′-(morpholinomethyl)-4-((3S,5R)-3,4,5-trimethylpiperazin-1-yl)-[1,1′-biphenyl]-3-yl)-6-oxo-4-(trifluoromethyl)-1,6-dihydropyridine-3-carboxamide] | 737 | 8 | 8 | 5.84 | 529 |
| CN1CCN(c2ccc(-c3cc(OC4CCOCC4)ncc3F)cc2NC(=O)c2c[nH]c(=O)cc2C(F)(F)F)CC1 [Example 31, N-(5-(5-fluoro-2-((tetrahydro-2H-pyran-4-yl)oxy)pyridin-4-yl)-2-(4-methylpiperazin-1-yl)phenyl)-6-oxo-4-(trifluoromethyl)-1,6-dihydropyridine-3-carboxamide] | 1280 | 9 | 9 | 5.76 | 1740 |
| CN1CCN(c2ccc(-c3cc(C(=O)NC4CCCCC4)ccc3F)cc2NC(=O)c2c[nH]c(=O)cc2C(F)(F)F)CC1 [Example 32, N-(5′-(cyclohexylcarbamoyl)-2′-fluoro-4-(4-methylpiperazin-1-yl)-[1,1′-biphenyl]-3-yl)-6-oxo-4-(trifluoromethyl)-1,6-dihydropyridine-3-carboxamide] | 680 | 6 | 6 | 9.48 | 332 |
| CN1CCN(c2ccc(-c3cc(CNC4CCOCC4)ccc3F)cc2NC(=O)c2c[nH]c(=O)cc2C(F)(F)F)CC1 [Example 37, N-(2′-fluoro-4-(4-methylpiperazin-1-yl)-5′-(((tetrahydro-2H-pyran-4-yl)amino)methyl)-[,1′-biphenyl]-3-yl)-6-oxo-4-(trifluoromethyl)-1,6-dihydropyridine-3-carboxamide] | 2910 | 5 | 6 | 4.38 | 1300 |
| CN1CCN(c2ccc(-c3ccc(CN4CCOCC4)cc3F)cc2NC(=O)c2c[nH]c(=O)cc2C(F)(F)F)CC1 [Example 38, N-(2′-fluoro-4-(4-methylpiperazin-1-yl)-4′-(morpholinomethyl)-[1,1′-biphenyl]-3-yl)-6-oxo-4-(trifluoromethyl)-1,6-dihydropyridine-3-carboxamide] | > 10000 | 8 | 8 | 3.42 | 3990 |
| CN1CCN(c2ccc(-c3ccnc(N4CCOCC4)c3F)cc2NC(=O)c2c[nH]c(=O)cc2C(F)(F)F)CC1 [Example 39, N-(5-(3-fluoro-2-morpholinopyridin-4-yl)-2-(4-methylpiperazin-1-yl)phenyl)-6-oxo-4-(trifluoromethyl)-1,6-dihydropyridine-3-carboxamide] | > 10000 | 28 | 28 | 1.46 | 2510 |
| C[C@@H]1CN(c2ccc(-c3cc(CNC4CCCCC4)ccc3F)cc2NC(=O)c2c[nH]c(=O)cc2C(F)(F)F)C[C@H](C)N1C [Example 45, N-(5′-((cyclohexylamino)methyl)-2′-fluoro-4-((3S,5R)-3,4,5-trimethylpiperazin-1-yl)-[1,1′-biphenyl]-3-yl)-6-oxo-4-(trifluoromethyl)-1,6-dihydropyridine-3-carboxamide] | 74 | 2 | 2 | 31.9 | 514 |
| C[C@@H]1CN(c2ccc(-c3cc(C(=O)NC4CCCCC4)ccc3F)cc2NC(=O)c2c[nH]c(=O)cc2C(F)(F)F)C[C@H](C)N1C [Example 46, N-(5′-(cyclohexylcarbamoyl)-2′-fluoro-4-((3S,5R)-3,4,5-trimethylpiperazin-1-yl)-[1,1′-biphenyl]-3-yl)-6-oxo-4-(trifluoromethyl)-1,6-dihydropyridine-3-carboxamide] | 118 | 0.95 | 0.95 | 74.4 | 290 |
| C[C@@H]1CN(c2ccc(-c3cc(C(=O)N4CCOCC4)ccc3F)cc2NC(=O)c2c[nH]c(=O)cc2C(F)(F)F)C[C@H](C)N1C [Example 47, N-(2′-fluoro-5′-(morpholine-4-carbonyl)-4-((3S,5R)-3,4,5-trimethylpiperazin-1-yl)-[1,1′-biphenyl]-3-yl)-6-oxo-4-(trifluoromethyl)-1,6-dihydropyridine-3-carboxamide] | 1990 | 8 | 8 | 9.58 | 2390 |
| CN1CCN(c2ccc(-c3cc(CN4CCOCC4)ccc3F)cc2NC(=O)c2c[nH]c(=O)cc2C(F)F)CC1 [Example 49, 4-(difluoromethyl)-N-(2′-fluoro-4-(4-methylpiperazin-1-yl)-5′-(morpholinomethyl)-[1,1′-biphenyl]-3-yl)-6-oxo-1,6-dihydropyridine-3-carboxamide] | 2240 | 7 | 7 | 3.89 | 1570 |
| C[C@@H]1CN(c2ccc(-c3cc(OCC4CC4)ncc3F)cc2NC(=O)c2c[nH]c(=O)cc2C(F)(F)F)C[C@H](C)N1C [Example 50, N-(5-(2-(cyclopropylmethoxy)-5-fluoropyridin-4-yl)-2-((3S,5R)-3,4,5-trimethylpiperazin-1-yl)phenyl)-6-oxo-4-(trifluoromethyl)-1,6-dihydropyridine-3-carboxamide] | 943 | 4 | 4 | 12.6 | 1790 |
| CCN1CCN(c2ccc(-c3cc(CNC4CCCCC4)ccc3F)cc2NC(=O)c2c[nH]c(=O)cc2C(F)(F)F)CC1 [Example 63, N-(5′-((cyclohexylamino)methyl)-4-(4-ethylpiperazin-1-yl)-2′-fluoro-[1,1′-biphenyl]-3-yl)-6-oxo-4-(trifluoromethyl)-1,6-dihydropyridine-3-carboxamide] | > 10000 | > 200 | > 200 | – | 5630 |
| CN1CCN(c2ccc(-c3cc(CN4CCN(CC5CC5)CC4)ccc3F)cc2NC(=O)c2c[nH]c(=O)cc2C(F)(F)F)CC1 [Example 66, N-(5′-((4-(cyclopropylmethyl)piperazin-1-yl)methyl)-2′-fluoro-4-(4-methylpiperazin-1-yl)-[1,1′-biphenyl]-3-yl)-6-oxo-4-(trifluoromethyl)-1,6-dihydropyridine-3-carboxamide] | 1130 | 7.2 | 7.2 | 3.79 | 1100 |
| CN1CCN(c2ccc(-c3cc(CN(C)C4CCCCC4)ccc3F)cc2NC(=O)c2c[nH]c(=O)cc2C(F)(F)F)CC1 [Example 67, N-(5′-((cyclohexyl(methyl)amino)methyl)-2′-fluoro-4-(4-methylpiperazin-1-yl)-[1,1′-biphenyl]-3-yl)-6-oxo-4-(trifluoromethyl)-1,6-dihydropyridine-3-carboxamide] | 292 | 3.2 | 3.2 | 8.8 | 1150 |
